Where two headings read alike, the source gives them in different places.
Assays:
[1] = test system: S. aureus strain UAMS-1; test: Minimum inhibitory concentration (MIC) testing, CLSI microtiter, with or without mupirocin; type: cell-based, Staphylococcus aureus; details: for MIC: Staphylococcus aureus
Experimental: Screen of Selleck Library. Members of the Selleck Library of Food and Drug […] approved drugs (Selleck Chemicals, Houston Tex., L1300) were screened for agents that potentiate the antimicrobial activity of mupirocin toward S. aureus strain UAMS-1. To do so, 1×10^5 colony forming units of UAMS-1 were added to individual wells of a 96-well microtiter plate, mixed with 0.03 μg/mL mupirocin (0.5× minimum inhibitory concentration) and 50 μM of test agent in Mueller Hinton broth (MHB; 100 μL total well volume). Microtiter plates were incubated at 37° C. for 16 hr, and individual wells were inspected for growth. Wells lacking growth were considered to represent agents that either potentiated the antimicrobial properties of mupirocin or mupirocin-independent antimicrobial microbial properties.
(§1) Antimicrobial Susceptibility Testing. Minimum inhibitory concentration (MIC) was tested in accordance with the Clinical and Laboratory Standards Institute (CLSI) guidelines. Briefly, 1×10^5 CFU of the indicated S. aureus strain was added to individual wells of a microtiter plate containing 88 μL of MHB media and two-fold increasing concentrations of mupirocin or test agent (0-128 μg ml^−1). Plates were incubated for 16 hr at 37° C. and wells were visually inspected for growth. The lowest concentration of mupirocin or test agent that inhibited S. aureus growth was considered to be the minimum inhibitory concentration. Fractional inhibitory concentration index (FIC) testing was performed to measure interactions between mupirocin and neomycin, as previously described. See Odds F C. 2003. Synergy, antagonism, and what the chequerboard puts between them. The Journal of antimicrobial chemotherapy 52:1. Briefly, in checkerboard format each row of the plate contained increasing concentrations of mupirocin (2-fold increments; 0-0.5 μg/mL), whereas each column contained increasing concentrations of neomycin (2-fold increments; 0-32 μg/mL). To every well (100 μl total volume) MHB containing 3×10^5 CFU of S. aureus strain UAMS-1 was added and the plate was incubated at 37° C. overnight (16-20 hr). The FIC was determined using the following formula: (MIC of Drug A in Combination/MIC of Drug A Alone)+(MIC of Drug B in Combination/MIC of Drug B Alone)=FIC. A synergistic interaction was defined as an FIC value≤0.5, additive as FIC value 0.5-1.0, no interaction as an FIC of 1-4, or an antagonistic interaction FIC>4.
Members of the Selleck library of 853 FDA approved drugs were screened for agents that potentiate the activity of mupirocin. […] Conversely, the antimicrobial activity of Nitazoxanide, Nitrofurazone, and Neomycin sulfate, increased in the presence of mupirocin.

[2] = test system: S. aureus strain UAMS-1; test: Fractional inhibitory concentration index (FIC) checkerboard testing with mupirocin; type: cell-based, Staphylococcus aureus; details: combined with mupirocin, additive = 0.5-1.0
Experimental: as §1

[3] = test system: S. aureus strain UAMS-1; type: in vivo, Staphylococcus aureus; details: Balb-c mice
Experimental: Nasal Colonization and Treatment of Mice. Ointments were evaluated for in vivo antimicrobial activity using a S. aureus nasal colonization model as previously described, but with modifications. See Kiser K B, Cantey-Kiser J M, Lee J C. 1999. Development and characterization of a Staphylococcus aureus nasal colonization model in mice. Infect Immun 67:5001-5006. The nostrils of awake mice were inoculated with 1×10^7 of the indicated S. aureus strain by pipetting 10 μL of culture directly into the nostrils and confirmed by the visualization of air bubbles appearing as the mouse breathed in and out. Mice nostrils were then treated with 10 μL PEG ointment (brought to 55° C. in a heat block to liquefy) containing either vehicle alone or the indicated antibiotic 45 min post inoculation and treatments were repeated every 8 hr for three days. […]
A murine model of S. aureus nasal colonization was used to compare the antimicrobial efficacy of mupirocin, neomycin, and the two agents when applied in combination. To do so, the nasal passage of Balb-c mice were inoculated with ˜1×10^7 colony forming units of S. aureus then treated three times a day for a total of three days, at which point the bacterial burden was measured and the antibiotic susceptibility of ten isolates from each animal was measured by MIC testing.

[4] = test system: S. aureus strain UAMS-1; test: Murine dermal wound model of infection; type: in vivo, Staphylococcus aureus
Experimental: Dermal Wound Model of Infection and Treatment of Mice. The effects of ointment compilations were evaluated for in vivo antimicrobial activity using a S. aureus dermal wound model, but with modifications. See Guthrie K M, Agarwal A, Tackes D S, Johnson K W, Abbott N L, Murphy C J, Czuprynski C J, Kierski P R, Schurr M J, McAnulty J F. 2012. Antibacterial efficacy of silver-impregnated polyelectrolyte multilayers immobilized on a biological dressing in a murine wound infection model. Annals of surgery 256:371-377. Mice were anesthetized by intraperitoneal injection with a mixture of 100 mg ml^−1 Ketamine (Hospira Inc., Lake Forest Ill.) and 20 mg ml^−1 Xylazine (Lloyd Laboratories, Shenandoah Iowa) in NaCl at five μ1 per 1 g body weight. Pain relief in the form of 20 μL 0.5% Sensorcaine (APP Pharmaceuticals, Schaumburg, Ill.) was administered prior to dermal wounding. […]
To do so, a dermal wound was created on the back of Balb-c mice, inoculated with either S. aureus strain UAMS-1, USA300, or BAA-1708, and then treated with test agent suspended in PEG-based ointment twice a day for a total of 3 days, at which point bacterial burden was measured.

[5] = test system: S. aureus strain UAMS-1; details: previous studies; cited from earlier work
[6] = test system: strain BAA-1708; test: MIC testing; type: cell-based; details: Staphylococcus aureus, BAA1708; BAA-1708 (mupA), data not shown
Experimental: as §1, with “To every well (100 μl total volume) MHB containing 3×10^5 CFU of S. aureus strain UAMS-1 was added and the plate was incubated at 37° C. overnight (16-20 hr).” left out, “A synergistic interaction was defined as an FIC value≤0.5, additive as FIC value 0.5-1.0, no interaction as an FIC of 1-4, or an antagonistic interaction FIC>4.” left out

[7] = test system: S. aureus RNase P; test: RNase P ptRNA processing assay; type: biochemical, Staphylococcus aureus; details: 250 μM, in vitro
Experimental: RNase P ptRNA Processing Assay. S. aureus RNase P activity assays were performed as previously described. See Eidem T M, Lounsbury N, Emery J F, Bulger J, Smith A, Abou-Gharbia M, Childers W, Dunman P M. 2015. Small-molecule inhibitors of Staphylococcus aureus RnpA-mediated RNA turnover and tRNA processing. Antimicrob Agents Chemother 59:2016-2028. Briefly, RNase P was first reconstituted by mixing an equimolar ratio of denatured rnpB and RnpA for 15 min at 37° C. then added (5 pmol) to 10 pmol of ptRNA^Tyr, and increasing concentrations of the indicated concentration of neomycin or the known RNase P inhibitor, RNPA2000 in a total volume of 20 μl. […] A FluorChem 5500 imaging system was used to visualize RNA products and quantified using ImageJ software (National Institutes of Health, Bethesda Md.). The percent RNase P activity was then calculated using the following equation: test compound tRNA^Tyr signal/mock tRNA^Tyr signal.
Aminoglycoside antibiotics, such has neomycin, contain a central deoxystreptamine ring decorated with amino-sugar modifications and act by binding to the major groove of the 16S rRNA to disrupt the fidelity of tRNA selection and block protein translation. […] A real-time fluorescence polarization activity assay to screen for inhibitors of bacterial ribonuclease P. Nucleic acids research 42:e159.

[8] = test system: USA300; test: MIC testing; type: cell-based, Staphylococcus aureus; details: USA300, data not shown
Experimental: as §1, with “To every well (100 μl total volume) MHB containing 3×10^5 CFU of S. aureus strain UAMS-1 was added and the plate was incubated at 37° C. overnight (16-20 hr).” left out, “A synergistic interaction was defined as an FIC value≤0.5, additive as FIC value 0.5-1.0, no interaction as an FIC of 1-4, or an antagonistic interaction FIC>4.” left out

[9] = UAMS1, medium containing 0.25× the strain's mupirocin MIC, UAMS-1, read-out: MIC (+) Mup.
[10] = UAMS1, read-out: MIC (−) Mup., medium lacking mupirocin, UAMS-1

With CC(=O)Oc1ccccc1C(=O)Nc1ncc([N+](=O)[O-])s1 [Nitazoxanide] as the compound, how does the MIC [1, 9] read?
Its MIC is 8 µg/mL.

What about the MIC [1, 10] of the same compound?
Its MIC is 16 µg/mL.

And the “Fractional Inhibitory Concentration Index” value [2]?
Its value is 0.75.

For NC(=O)N/N=C/c1ccc([N+](=O)[O-])o1 [Nitrofurazone], which MIC [1, 9] is on record?
Its MIC is 8 µg/mL.

And the MIC [1, 10]?
Its MIC is 16 µg/mL.

And the “Fractional Inhibitory Concentration Index” value [2]?
Its value is 0.75.

Which “nasal decolonization (in words)” value [3] does the source give for CC(C)c1ccc(OCC(=O)NNC(=S)NC(=O)c2ccco2)cc1 [RNPA2000] here?
Its value is “does not exhibit antimicrobial activity”.

And the “wound decolonization (in words)” value [4]?
The value was “does not exhibit antimicrobial activity”.

And the “FIC measures with mupirocin” value [5]?
Its value is under 0.5.

Which MIC ([1]; UAMS1, UAMS-1 isolates from two 2% mupirocin treated mice with higher nasal burdens) does the source give for C/C(=C\C(=O)OCCCCCCCCC(=O)O)C[C@@H]1OC[C@H](C[C@@H]2O[C@H]2[C@@H](C)[C@H](C)O)[C@@H](O)[C@H]1O [mupirocin] here?
The MIC was 0.5 µg/mL.

What about the MIC ([1]; UAMS1, inoculating strain UAMS-1 and isolates from the other animals of the 2% mupirocin nasal treatment group) of the same compound?
The MIC was 0.125 µg/mL.

And the MIC ([1]; UAMS1, read-out: mupirocin minimum inhibitory concentration (MIC), UAMS-1, as stated for the library screen)?
Its MIC is 0.3 µg/mL.

What about the “increase in mupirocin tolerance” value ([1]; isolates from two higher-burden mice versus inoculating strain) of the same compound?
Its value is 4 fold.

And the MIC [6]?
The MIC was over 256 µg/mL.

What does the source list for neomycin?
MIC (+) Mup. ([1]; medium containing 0.25× the strain's mupirocin MIC, UAMS-1): 0.25 µg/mL; MIC (−) Mup. ([1]; medium lacking mupirocin, UAMS-1): 0.5 µg/mL; Fractional Inhibitory Concentration Index [2]: 0.75; inhibition of RNase P-catalyzed maturation of precursor tRNA^Tyr [7]: inhibit; MIC [8]: 128 µg/mL
